Assay results reported in US11241374B2, “Compositions and methods for treating skin conditions using light and glucosamine hydrochloride” (Johnson & Johnson Consumer Inc., priority 2018, dated 2022).
“Also recorded” adds a separate entry of the source.

Tested on: Human dermal fibroblasts
Test: Hyaluronic acid (HA) secretion by human dermal fibroblasts, Hyaluronan ELISA of culture media
Format: cell-based
Conditions: for Synergy of active with red and/or near infrared light in hyaluronic acid production: combination of active and light versus light alone; for Fold Change versus treatment with light alone: net HA
Description: Human dermal fibroblasts are maintained in flask in growth medium consisting of Dulbeccos' Modified Eagle Medium (DMEM) plus 10% fetal bovine serum, 50 units/ml penicillin and 50 μg/ml streptomycin. Cells are seeded at 10,000 cells per well in a 96 well plate in phenol-red-free Dulbeccos' Modified Eagle Medium (DMEM) plus 2% fetal bovine serum, 50 units/ml penicillin and 50 μg/ml streptomycin for 24 hours before the treatments. Glucosamine HCl or other actives were dissolved in 1×PBS at 10% stock and added into the medium at various concentrations for 48 hours. Culture media is collected at 48 hours post-treatment, and measured for HA (Hyaluronic acid) secretion using Hyaluronan ELISA kit (Echelon, cat. #K-1200) following the manufacturer protocol. To assess activity, the colorimetric chance is measured at 405 nm. The net HA secretion of each tested treatment is calculated by the amount of the HA secretion from each respective individual treatment minus the amount of the HA secretion from the untreated treatment. Then, the fold increase provided by the combination of the treatments by light+active is calculated as the fold change in net HA secreted from the application of the combined light plus active treatment divided by the net HA secreted from the treatment by light alone. […]

[1] = 0.02% active alone in cell media, no light, 48 hours
[2] = Red (633 nm) + NIR (830 nm) light 0.3 J/cm^2 each + 0.02% active
[3] = Red + NIR light 0.3 J/cm^2 each + 0.02% active
[4] = Red + NIR light 0.3 J/cm^2 each + 0.2% active
[5] = Red + NIR light 3 J/cm^2 each + 0.02% active
[6] = Red + NIR light 3 J/cm^2 each + 0.2% active

SMILES	Synergy of active with red and/or near infrared light in hyaluronic acid production	HA concentrations [1] [ng/mL]	Change in HA concentration over Untreated (0.02% active alone, no light) [ng/mL]	HA concentrations [2] [ng/mL]	Change in HA concentration over Untreated [3]	Fold Change versus treatment with light alone [3]	further results
N[C@H]1C(O)O[C@H](CO)[C@@H](O)[C@@H]1O (some centres unmarked) [glucosamine]	not observed	–	–	–	–	–	–
Cl.N[C@H]1C(O)O[C@H](CO)[C@@H](O)[C@@H]1O (some centres unmarked) [Glucosamine HCl, glucosamine hydrochloride]	–	543	-8	2489	+1938 ng/ml	2.25	HA concentrations (0.2% active alone in cell media, no light, 48 hours): 999 ng/mL; Change in HA concentration over Untreated (0.2% active alone, no light): +448 ng/ml; HA concentrations (Red (633 nm) + NIR (830 nm) light 0.3 J/cm^2 each + 0.2% active): 2260 ng/mL; HA concentrations (Red (633 nm) + NIR (830 nm) light 3 J/cm^2 each + 0.02% active): 4379 ng/mL; HA concentrations (Red (633 nm) + NIR (830 nm) light 3 J/cm^2 each + 0.2% active): 3873 ng/mL; Change in HA concentration over Untreated [4]: +1709 ng/ml; Change in HA concentration over Untreated [5]: +3828 ng/ml; Change in HA concentration over Untreated [6]: +3322 ng/ml; Synergy of active with red and/or near infrared light in hyaluronic acid production (listed as glucosamine HCl, hydrochloride): synergistically increased the hyaluronic acid secretion; Synergy of active with red and/or near infrared light in hyaluronic acid production (listed as glucosamine hydrochloride, hydrochloride): synergistically increases hyaluronic acid production; Fold Change versus treatment with light alone [4]: 1.98; Fold Change versus treatment with light alone [5]: 2.99; Fold Change versus treatment with light alone [6]: 2.60
N[C@H]1C(O)O[C@H](CO)[C@@H](O)[C@@H]1O.O=P(O)(O)O (some centres unmarked) [Glucosamine phosphate, reference compound]	–	689	-51	1037	297 ng/mL	0.36	Synergy of active with red and/or near infrared light in hyaluronic acid production (listed as glucosamine phosphate, phosphate): not observed; Synergy of active with red and/or near infrared light in hyaluronic acid production (phosphate): No synergy was observed
CC(=O)N[C@H]1C(O)O[C@H](CO)[C@@H](O)[C@@H]1O (some centres unmarked) [N-acetyl Glucosamine, N-acetyl glucosamine, reference compound]	No synergy was observed; also recorded: not observed	735	-125	1878	1018 ng/mL	1.1	–
